The target of this experiment is T1, CRF1 Receptor (Homo sapiens, UniProt P34998).
T1 construct: endogenous in cells; host or cells: IMR-32 human neuroblastoma cells (membrane preparation)
T1 sequence (P34998 24-415): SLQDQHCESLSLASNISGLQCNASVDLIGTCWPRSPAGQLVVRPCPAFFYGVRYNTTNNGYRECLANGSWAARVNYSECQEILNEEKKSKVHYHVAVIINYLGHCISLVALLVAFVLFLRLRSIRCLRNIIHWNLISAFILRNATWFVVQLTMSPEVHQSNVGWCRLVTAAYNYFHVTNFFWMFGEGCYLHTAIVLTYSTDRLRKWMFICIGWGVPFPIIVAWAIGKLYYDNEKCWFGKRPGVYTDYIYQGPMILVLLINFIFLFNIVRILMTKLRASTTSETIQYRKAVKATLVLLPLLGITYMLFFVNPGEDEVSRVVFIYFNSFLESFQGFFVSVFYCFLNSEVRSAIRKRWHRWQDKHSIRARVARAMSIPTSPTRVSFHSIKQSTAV
Description: CRF1 Receptor Binding Assay. The note with it: competition with [125I]Tyr0-ovine CRF, human IMR-32 neuroblastoma cell membranes; pKi derived from pIC50. The procedure:
CRF1 Receptor Binding Assay
Human IMR-32 neuroblastoma cells are grown to 80% confluence in MEM medium containing 10% heat-inactivated FBS, 1 mM Sodium Pyruvate, and 0.1 mM nonessential amino acids. Cell membranes are prepared according the method of Dieterich and DeSouza (1996). The cells (˜5E+9) are resuspended in 10 volumes of wash buffer (5 mM Tris HCl, 10 mM MgCl2, 2 mM EGTA, pH 7.4 at RT), homogenized with a Polytron, and then centrifuged at 45,000 G for 20 min at 4° C. The membrane pellets are washed twice with wash buffer (45,000 G for 20 min at 4° C.) and then resuspended (50 mM Tris HCl, 10 mM MgCl2, 2 mM EGTA, pH 7.4 at RT). Protein concentration is determined using Pierce reagents and BSA as standard. […]
The competition binding assay is performed in a final volume of 250 μl, which contains assay buffer (50 mM Tris-HCl, 10 mM MgCl2, 2 mM EGTA, 0.2% BSA, 0.1 mM bacitracin and 100 kIU/mL aprotinin pH 7.2 at R.T.), 0.05 nM [^125I]Tyr^0-ovine CRF (Du Pont New England Nuclear), 50 μg of membrane protein, and test compound at various concentrations. Non-specific binding is determined with 1 uM hCRF. […] Unbound radioactivity is removed by four rapid washes (0.8 ml/well) with wash buffer. The radioactivity is quantified using a Packard TopCount. Data are analyzed using non-linear iterative curve fitting to obtain IC50 and Hill slope values. […]

The term Ki denotes the dissociation constant of the complex between target and ligand, obtained from inhibition or displacement. Low readings indicate higher affinity, high ones lower affinity.

For the compound `CCCN(CC1CC1)c1nc(C)nc2c1CCCC21CCc2ccccc21` (stereo not shown) [Compound 1, (2,3,5′,6′,-Tetrahydro)-2′-methyl-4′-(N-propyl-N-cyclo-propylmethyl-amino)spiro[(1H)indene-1,8′-(7H)quina-zoline]], the Ki was 0.123 µM.

These data come from patent publication US7135476B2, “Spiro tetrahydroquinazolines and dihydrocyclopentapyrimidines as CRF antagonists” (Roche Palo Alto LLC, priority 2003, dated 2006).
